# Measurements: patent EP4745135A1 (Gluetacs Therapeutics (Shanghai) Co., Ltd., priority 2023, dated 2025)
# pIC50: −log10 of the molar value.
# Key:
# [1] = target: T1, human Cereblon WT GST-tagged protein (Homo sapiens, UniProt Q96SW2); test: CRBN-binding affinity, HTRF (CEREBLON BINDING kit); conditions: for pIC50: CRBN binding, HTRF, 3 hours at room temperature, read-out: HTRF IC50; for inhibition at 0.5 µM: read-out: Inhibition Rate at 0.5 µM (%); for inhibition at 2 µM: read-out: Inhibition Rate at 2 µM (%)
# T1 construct: purchased CISBIO 64BDCRBNPEH
# [2] = tested on: Human multiple myeloma cell (MM.1S); test: Tumor cell proliferation inhibition (CellTiter-Meiluncell luminescent cell viability assay); conditions: for IC50 / inhibition at 0.01 µM / inhibition at 0.5 µM: Homo sapiens, MM1.S, 96 h; for IC50: read-out: Inhibitory activity (IC50, nM) on tumor cell proliferation, MM.1S; for inhibition at 0.01 µM: read-out: Inhibition Rate at 10 nM (%); for inhibition at 0.5 µM: read-out: Inhibition Rate at 500 nM (%)
# WEE1 = target: T2, WEE1 (Homo sapiens, UniProt P30291+Q96SW2); test: Western blot, degradation of substrate protein in hPBMCs; type: cell-based
# T2 construct: effects of the compounds of the present disclosure on the expression of target proteins in cells; endogenous in cells; host or cells: human PBMCs (Milecell Biotechnologies)
# CK1α = target: T3, CK1α (Homo sapiens, UniProt P48729+Q96SW2); test: as above; type: cell-based
# T3 construct: effects of the compounds of the present disclosure on the expression of target proteins in cells; endogenous in cells; host or cells: human PBMCs (Milecell Biotechnologies)
# IKZF3 = target: T4, IKZF3 (Homo sapiens, UniProt Q96SW2+Q9UKT9); test: as above; type: cell-based
# T4 construct: effects of the compounds of the present disclosure on the expression of target proteins in cells; endogenous in cells; host or cells: human PBMCs (Milecell Biotechnologies)
# IKZF2 = target: T5, IKZF2 (Homo sapiens, UniProt Q96SW2+Q9UKS7); test: as above; type: cell-based
# T5 construct: effects of the compounds of the present disclosure on the expression of target proteins in cells; endogenous in cells; host or cells: human PBMCs (Milecell Biotechnologies)
# IKZF1 = target: T6, IKZF1 (Homo sapiens, UniProt Q13422+Q96SW2); test: as above; type: cell-based
# T6 construct: effects of the compounds of the present disclosure on the expression of target proteins in cells; endogenous in cells; host or cells: human PBMCs (Milecell Biotechnologies)
# GSPT1 = test: as above; type: cell-based, Human
# [3] = Western blot, 24 hours of compound treatment, compounds tested at 50 nM and 500 nM (concentration for the table not stated)
# [4] = 24 hours treatment, compounds at 50 nM and 500 nM (concentration behind the class not stated)
# T1 sequence (Q96SW2 whole entry): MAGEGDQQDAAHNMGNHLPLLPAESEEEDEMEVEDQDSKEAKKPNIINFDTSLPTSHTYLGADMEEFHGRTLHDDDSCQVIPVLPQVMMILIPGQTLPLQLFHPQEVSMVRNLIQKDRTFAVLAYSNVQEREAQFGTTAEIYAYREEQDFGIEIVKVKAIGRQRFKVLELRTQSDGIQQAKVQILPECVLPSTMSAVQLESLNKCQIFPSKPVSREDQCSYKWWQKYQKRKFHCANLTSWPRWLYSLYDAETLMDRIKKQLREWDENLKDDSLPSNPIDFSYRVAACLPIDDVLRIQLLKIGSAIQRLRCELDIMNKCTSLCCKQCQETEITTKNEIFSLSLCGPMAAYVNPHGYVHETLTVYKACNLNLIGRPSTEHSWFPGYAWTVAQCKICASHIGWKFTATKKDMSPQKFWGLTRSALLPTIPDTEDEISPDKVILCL
# T5 sequence (Q9UKS7 whole entry): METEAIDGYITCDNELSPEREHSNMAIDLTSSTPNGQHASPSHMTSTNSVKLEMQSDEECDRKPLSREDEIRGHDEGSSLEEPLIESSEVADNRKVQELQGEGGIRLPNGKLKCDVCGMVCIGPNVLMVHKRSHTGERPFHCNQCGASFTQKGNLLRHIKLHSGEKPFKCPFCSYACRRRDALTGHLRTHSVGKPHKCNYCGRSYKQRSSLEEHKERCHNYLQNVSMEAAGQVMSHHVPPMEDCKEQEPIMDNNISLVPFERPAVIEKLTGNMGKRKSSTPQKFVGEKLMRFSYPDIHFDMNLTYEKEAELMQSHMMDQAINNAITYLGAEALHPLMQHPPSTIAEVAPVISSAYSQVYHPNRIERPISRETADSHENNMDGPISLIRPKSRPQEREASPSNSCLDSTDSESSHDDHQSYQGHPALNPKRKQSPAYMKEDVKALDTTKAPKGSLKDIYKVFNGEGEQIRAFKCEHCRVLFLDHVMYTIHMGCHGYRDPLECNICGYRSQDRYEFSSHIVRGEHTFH
# T5 sequence (Q96SW2 whole entry): as the sequence (Q96SW2 whole entry) above
# T5 sequence (Q16531 whole entry partner): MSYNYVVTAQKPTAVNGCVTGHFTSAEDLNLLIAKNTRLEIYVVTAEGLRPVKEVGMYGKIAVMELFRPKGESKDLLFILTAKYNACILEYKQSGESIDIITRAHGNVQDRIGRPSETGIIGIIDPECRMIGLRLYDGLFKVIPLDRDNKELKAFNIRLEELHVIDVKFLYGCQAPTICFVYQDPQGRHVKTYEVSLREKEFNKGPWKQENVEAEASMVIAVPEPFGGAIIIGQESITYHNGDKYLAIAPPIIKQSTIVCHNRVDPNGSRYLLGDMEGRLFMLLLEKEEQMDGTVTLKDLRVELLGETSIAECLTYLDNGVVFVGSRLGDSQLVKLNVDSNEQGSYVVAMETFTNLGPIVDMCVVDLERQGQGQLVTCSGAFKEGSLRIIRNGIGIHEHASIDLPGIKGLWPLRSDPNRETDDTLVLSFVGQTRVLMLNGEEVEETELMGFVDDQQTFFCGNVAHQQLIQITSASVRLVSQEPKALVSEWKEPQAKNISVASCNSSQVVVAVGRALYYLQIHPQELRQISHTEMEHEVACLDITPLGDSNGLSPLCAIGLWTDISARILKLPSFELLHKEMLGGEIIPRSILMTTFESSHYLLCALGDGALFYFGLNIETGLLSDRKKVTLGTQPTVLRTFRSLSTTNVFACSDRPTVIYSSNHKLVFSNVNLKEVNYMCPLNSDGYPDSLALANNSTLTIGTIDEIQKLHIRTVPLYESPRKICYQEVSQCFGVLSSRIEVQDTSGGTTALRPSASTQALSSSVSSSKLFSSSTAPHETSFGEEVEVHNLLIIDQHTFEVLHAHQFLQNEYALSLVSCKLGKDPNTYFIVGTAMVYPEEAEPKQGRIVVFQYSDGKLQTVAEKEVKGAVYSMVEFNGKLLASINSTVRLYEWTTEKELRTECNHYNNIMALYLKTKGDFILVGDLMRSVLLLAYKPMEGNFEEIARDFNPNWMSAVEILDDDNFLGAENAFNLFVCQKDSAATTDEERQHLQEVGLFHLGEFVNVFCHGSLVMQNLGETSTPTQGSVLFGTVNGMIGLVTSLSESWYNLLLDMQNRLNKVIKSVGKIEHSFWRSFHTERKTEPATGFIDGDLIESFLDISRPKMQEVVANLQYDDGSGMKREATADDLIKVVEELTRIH
# T2 sequence (P30291 whole entry): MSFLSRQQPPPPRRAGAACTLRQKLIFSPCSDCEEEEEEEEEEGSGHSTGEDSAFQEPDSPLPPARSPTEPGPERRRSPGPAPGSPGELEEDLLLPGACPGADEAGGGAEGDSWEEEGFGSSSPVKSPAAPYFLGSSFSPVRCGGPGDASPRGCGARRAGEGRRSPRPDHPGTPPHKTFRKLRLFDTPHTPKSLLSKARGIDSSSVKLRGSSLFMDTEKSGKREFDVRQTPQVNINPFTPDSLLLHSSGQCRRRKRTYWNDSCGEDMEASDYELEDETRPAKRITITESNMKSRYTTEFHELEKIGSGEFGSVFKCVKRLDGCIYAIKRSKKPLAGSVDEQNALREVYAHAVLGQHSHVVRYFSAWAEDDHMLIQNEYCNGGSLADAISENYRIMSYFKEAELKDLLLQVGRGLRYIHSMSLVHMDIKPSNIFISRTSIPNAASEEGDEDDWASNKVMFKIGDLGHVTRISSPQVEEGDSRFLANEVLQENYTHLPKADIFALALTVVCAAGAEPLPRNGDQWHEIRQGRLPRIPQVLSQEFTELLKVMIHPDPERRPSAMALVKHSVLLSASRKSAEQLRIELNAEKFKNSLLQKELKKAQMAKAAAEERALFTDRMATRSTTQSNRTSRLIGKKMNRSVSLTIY
# T2 sequence (Q96SW2 whole entry): as the sequence (Q96SW2 whole entry) above
# T2 sequence (Q16531 whole entry partner): as the sequence (Q16531 whole entry partner) above
# T6 sequence (Q13422 whole entry): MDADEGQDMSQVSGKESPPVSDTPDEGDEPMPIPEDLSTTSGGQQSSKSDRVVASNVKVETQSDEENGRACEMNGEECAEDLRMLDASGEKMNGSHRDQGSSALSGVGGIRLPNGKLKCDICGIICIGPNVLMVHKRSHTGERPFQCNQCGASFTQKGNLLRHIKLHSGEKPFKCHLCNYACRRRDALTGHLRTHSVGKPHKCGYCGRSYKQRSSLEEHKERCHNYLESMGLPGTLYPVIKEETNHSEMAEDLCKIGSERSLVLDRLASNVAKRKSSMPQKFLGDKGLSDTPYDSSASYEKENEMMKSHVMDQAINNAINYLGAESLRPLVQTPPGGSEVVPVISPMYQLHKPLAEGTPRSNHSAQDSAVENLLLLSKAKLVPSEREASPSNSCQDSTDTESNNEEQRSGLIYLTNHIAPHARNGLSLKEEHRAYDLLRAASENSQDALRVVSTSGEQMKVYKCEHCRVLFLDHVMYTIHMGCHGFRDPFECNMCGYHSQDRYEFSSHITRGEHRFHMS
# T6 sequence (Q96SW2 whole entry): as the sequence (Q96SW2 whole entry) above
# T6 sequence (Q16531 whole entry partner): as the sequence (Q16531 whole entry partner) above
# T3 sequence (P48729 whole entry): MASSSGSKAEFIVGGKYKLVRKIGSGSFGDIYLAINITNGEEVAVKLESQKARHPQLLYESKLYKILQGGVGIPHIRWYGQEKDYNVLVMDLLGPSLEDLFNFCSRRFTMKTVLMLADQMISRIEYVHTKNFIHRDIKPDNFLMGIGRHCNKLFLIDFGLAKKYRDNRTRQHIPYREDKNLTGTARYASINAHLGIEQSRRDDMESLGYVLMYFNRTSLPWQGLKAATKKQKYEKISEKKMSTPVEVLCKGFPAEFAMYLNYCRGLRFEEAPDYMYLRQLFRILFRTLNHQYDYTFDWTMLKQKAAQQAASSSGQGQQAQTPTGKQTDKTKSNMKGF
# T3 sequence (Q96SW2 whole entry): as the sequence (Q96SW2 whole entry) above
# T3 sequence (Q16531 whole entry partner): as the sequence (Q16531 whole entry partner) above
# T4 sequence (Q9UKT9 whole entry): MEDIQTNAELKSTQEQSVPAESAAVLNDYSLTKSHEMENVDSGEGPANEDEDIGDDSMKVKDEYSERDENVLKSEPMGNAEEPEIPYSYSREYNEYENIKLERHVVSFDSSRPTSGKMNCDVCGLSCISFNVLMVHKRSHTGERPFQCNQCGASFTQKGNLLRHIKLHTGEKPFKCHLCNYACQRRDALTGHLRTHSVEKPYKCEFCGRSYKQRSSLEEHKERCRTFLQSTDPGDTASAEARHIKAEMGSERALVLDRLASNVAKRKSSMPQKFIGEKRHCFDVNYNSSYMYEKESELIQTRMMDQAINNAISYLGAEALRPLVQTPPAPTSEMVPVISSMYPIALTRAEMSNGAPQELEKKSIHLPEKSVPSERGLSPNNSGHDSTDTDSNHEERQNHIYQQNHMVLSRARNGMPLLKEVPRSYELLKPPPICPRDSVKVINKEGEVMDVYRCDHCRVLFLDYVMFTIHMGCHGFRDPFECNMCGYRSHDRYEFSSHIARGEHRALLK
# T4 sequence (Q96SW2 whole entry): as the sequence (Q96SW2 whole entry) above
# T4 sequence (Q16531 whole entry partner): as the sequence (Q16531 whole entry partner) above
SMILES,pIC50 [1],IC50 [2],inhibition at 0.5 µM [1],inhibition at 2 µM [1],Wee1 substrate protein remaining % (WEE1; [3]),CK1α substrate protein remaining % (CK1α; [3]),IKZF3 substrate protein remaining % (IKZF3; [3]),IKZF2 substrate protein remaining % (IKZF2; [3]),IKZF 1 substrate protein remaining % (IKZF1; [3]),GSPT1 substrate protein remaining % (GSPT1; [3]),inhibition at 0.01 µM [2],inhibition at 0.5 µM [2],Wee1 substrate protein remaining % (WEE1; [4]),CK1α substrate protein remaining % (CK1α; [4]),IKZF3 substrate protein remaining % (IKZF3; [4]),IKZF2 substrate protein remaining % (IKZF2; [4]),IKZF 1 substrate protein remaining % (IKZF1; [4]),GSPT1 substrate protein remaining % (GSPT1; [4]),"Inhibition Rate at 10 nM (%) ([2]; MM.1S, 10 nM, 96 hours)"
"O=C1CCC(N2Cc3cc(CN4C5CC4CN(c4cccc(Cl)c4Cl)C5)ccc3C2=S)C(=O)N1 (stereo not drawn) [GT-05182, 3-(5-((3-(2,3-dichlorophenyl)-3,6-diazabicyclo[3.1.1]heptan-6-yl)methyl)-1-thioxoisoindolin-2-yl)piperidine-2,6-dione]",6.30 to 7.00,100 to 500 nM,,,A (0% ≤ substrate protein remaining % ≤ 80%),B (80%< substrate protein remaining %≤ 100%),B (80%< substrate protein remaining %≤ 100%),B (80%< substrate protein remaining %≤ 100%),B (80%< substrate protein remaining %≤ 100%),A (0% ≤ substrate protein remaining % ≤ 80%),,,,,,,,,
"O=C1CCC(N2Cc3cc(CN4C[C@@H]5C[C@H]4CN5c4cccc(Cl)c4Cl)ccc3C2=S)C(=O)N1 (stereo partly drawn) [GT-05183, 3-(5-(((1S,4S)-5-(2,3-dichlorophenyl)-2,5-diazabicyclo[2.2.1]heptan-2-yl)methyl)-1-thioxoisoindolin-2-yl)piperidine-2,6-dione]",6.30 to 7.00,50 to 100 nM,,,B (80%< substrate protein remaining %≤ 100%),B (80%< substrate protein remaining %≤ 100%),A (0% ≤ substrate protein remaining % ≤ 80%),B (80%< substrate protein remaining %≤ 100%),B (80%< substrate protein remaining %≤ 100%),A (0% ≤ substrate protein remaining % ≤ 80%),,,,,,,,,
"O=C1CCC(N2Cc3cc(CN4CCC(N5CCc6cc(F)ccc65)CC4)ccc3C2=S)C(=O)N1 (stereo not drawn) [GT-05244, 3-(5-((4-(5-fluoroindolin-1-yl)piperidin-1-yl)methyl)-1-thioxoisoindolin-2-yl)piperidine-2,6-dione]",6.30 to 7.00,100 to 500 nM,,,B (80%< substrate protein remaining %≤ 100%),B (80%< substrate protein remaining %≤ 100%),B (80%< substrate protein remaining %≤ 100%),A (0% ≤ substrate protein remaining % ≤ 80%),B (80%< substrate protein remaining %≤ 100%),A (0% ≤ substrate protein remaining % ≤ 80%),,,,,,,,,
"O=C1CCC(N2Cc3cc(CN4CC=C(c5ccnc6cc(F)ccc56)CC4)ccc3C2=S)C(=O)N1 (stereo not drawn) [GT-05245, 3-(5-((4-(7-fluoroquinolin-4-yl)-3,6-dihydropyridin-1(2H)-yl)methyl)-1-thioxoisoindolin-2-yl)piperidine-2,6-dione]",> 7.00,10 to 50 nM,,,A (0% ≤ substrate protein remaining % ≤ 80%),B (80%< substrate protein remaining %≤ 100%),A (0% ≤ substrate protein remaining % ≤ 80%),A (0% ≤ substrate protein remaining % ≤ 80%),B (80%< substrate protein remaining %≤ 100%),A (0% ≤ substrate protein remaining % ≤ 80%),,,,,,,,,
"O=C1CCC(N2Cc3cc(CN4CC=C(c5c[nH]c6ncccc56)CC4)ccc3C2=S)C(=O)N1 (stereo not drawn) [GT-05248, 3-(5-((4-(1H-pyrrolo[2,3-b]pyridin-3-yl)-3,6-dihydropyridin-1(2H)-yl)methyl)-1-thioxoisoindolin-2-yl)piperidine-2,6-dione]",> 7.00,50 to 100 nM,,,A (0% ≤ substrate protein remaining % ≤ 80%),B (80%< substrate protein remaining %≤ 100%),A (0% ≤ substrate protein remaining % ≤ 80%),A (0% ≤ substrate protein remaining % ≤ 80%),A (0% ≤ substrate protein remaining % ≤ 80%),A (0% ≤ substrate protein remaining % ≤ 80%),,,,,,,,,
"O=C1CC[C@H](N2Cc3c(OCc4ccc(CN5CCOCC5)cc4)cccc3C2=S)C(=O)N1 [GT-05712, (S)-3-(4-((4-(morpholinomethyl)benzyl)oxy)-1-thioxoisoindolin-2-yl)piperidine-2,6-dione]",> 7.00,,,,,,,,,,50 to 60%,70 to 80%,B (80%< substrate protein remaining %≤ 100%),B (80%< substrate protein remaining %≤ 100%),A (0% ≤ substrate protein remaining % ≤ 80%),B (80%< substrate protein remaining %≤ 100%),A (0% ≤ substrate protein remaining % ≤ 80%),A (0% ≤ substrate protein remaining % ≤ 80%),

# Further lines, with some results ahead:
pIC50 [1],IC50 [2],inhibition at 0.5 µM [1],inhibition at 2 µM [1],SMILES,Wee1 substrate protein remaining % (WEE1; [3]),CK1α substrate protein remaining % (CK1α; [3]),IKZF3 substrate protein remaining % (IKZF3; [3]),IKZF2 substrate protein remaining % (IKZF2; [3]),IKZF 1 substrate protein remaining % (IKZF1; [3]),GSPT1 substrate protein remaining % (GSPT1; [3]),inhibition at 0.01 µM [2],inhibition at 0.5 µM [2],Wee1 substrate protein remaining % (WEE1; [4]),CK1α substrate protein remaining % (CK1α; [4]),IKZF3 substrate protein remaining % (IKZF3; [4]),IKZF2 substrate protein remaining % (IKZF2; [4]),IKZF 1 substrate protein remaining % (IKZF1; [4]),GSPT1 substrate protein remaining % (GSPT1; [4]),"Inhibition Rate at 10 nM (%) ([2]; MM.1S, 10 nM, 96 hours)"
6.30 to 7.00,10 to 50 nM,,,"O=C1CCC(N2Cc3cc(CN4CCN(C(c5ccccc5)c5ccccn5)CC4)ccc3C2=S)C(=O)N1 (stereo not drawn) [GT-05103, 3-(5-((4-(phenyl(pyridin-2-yl)methyl)piperazin-1-yl)methyl)-1-thioxoisoindolin-2-yl)piperidine-2,6-dione]",B (80%< substrate protein remaining %≤ 100%),B (80%< substrate protein remaining %≤ 100%),B (80%< substrate protein remaining %≤ 100%),B (80%< substrate protein remaining %≤ 100%),B (80%< substrate protein remaining %≤ 100%),A (0% ≤ substrate protein remaining % ≤ 80%),,,,,,,,,
6.30 to 7.00,50 to 100 nM,,,"Cc1ccc(C2CCN(Cc3ccc4c(c3)CN(C3CCC(=O)NC3=O)C4=S)CC2)s1 (stereo not drawn) [GT-05112, 3-(5-((4-(5-methylthiophen-2-yl)piperidin-1-yl)methyl)-1-thioxoisoindolin-2-yl)piperidine-2,6-dione]",B (80%< substrate protein remaining %≤ 100%),B (80%< substrate protein remaining %≤ 100%),A (0% ≤ substrate protein remaining % ≤ 80%),B (80%< substrate protein remaining %≤ 100%),A (0% ≤ substrate protein remaining % ≤ 80%),A (0% ≤ substrate protein remaining % ≤ 80%),,,,,,,,,
6.30 to 7.00,100 to 500 nM,,,"Cc1cscc1C1CCN(Cc2ccc3c(c2)CN(C2CCC(=O)NC2=O)C3=S)CC1 (stereo not drawn) [GT-05146, 3-(5-((4-(4-methylthiophen-3-yl)piperidin-1-yl)methyl)-1-thioxoisoindolin-2-yl)piperidine-2,6-dione]",A (0% ≤ substrate protein remaining % ≤ 80%),B (80%< substrate protein remaining %≤ 100%),B (80%< substrate protein remaining %≤ 100%),B (80%< substrate protein remaining %≤ 100%),A (0% ≤ substrate protein remaining % ≤ 80%),A (0% ≤ substrate protein remaining % ≤ 80%),,,,,,,,,
,,30 to 40%,53 to 60%,"O=C1CCC(N2Cc3c(CN4CCN(C(c5ccccc5)c5cccnc5)CC4)cccc3C2=S)C(=O)N1 (stereo not drawn) [GT-08193, 3-(4-((4-(phenyl(pyridin-3-yl)methyl)piperazin-1-yl)methyl)-1-thioxoisoindolin-2-yl)piperidine-2,6-dione]",A (0% ≤ substrate protein remaining % ≤ 80%),B (80%< substrate protein remaining %≤ 100%),B (80%< substrate protein remaining %≤ 100%),A (0% ≤ substrate protein remaining % ≤ 80%),B (80%< substrate protein remaining %≤ 100%),A (0% ≤ substrate protein remaining % ≤ 80%),30 to 40%,40 to 50%,,,,,,,
,,53 to 60%,80 to 100%,"COc1cccc(N2CCN(Cc3ccc4c(c3)CN(C3CCC(=O)NC3=O)C4=S)CC2)c1 (stereo not drawn) [GT-08237, 3-(5-((4-(3-methoxyphenyl)piperazin-1-yl)methyl)-1-thioxoisoindolin-2-yl)piperidine-2,6-dione]",B (80%< substrate protein remaining %≤ 100%),B (80%< substrate protein remaining %≤ 100%),B (80%< substrate protein remaining %≤ 100%),B (80%< substrate protein remaining %≤ 100%),B (80%< substrate protein remaining %≤ 100%),A (0% ≤ substrate protein remaining % ≤ 80%),,40 to 50%,,,,,,,1la6
